One test addresses CDK2/Cyclin E1 (Homo sapiens, UniProt P24941). Description: CDK2/Cyclin E1 Biochemical Assay (TR-FRET), 0.060 mM ATP. The following applies: 0.15 μM Rb (Ser780)-biotin substrate, pH7.0, 60 min preincubation, 120 min reaction, room temperature. In outline:
(§1)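 TR-FRET readout: 665/620 nm ratio from Eu-cryptate anti-pRb(Ser780) antibody plus streptavidin-XL665, converted to % inhibition and fitted (4-parameter logistic) for IC50. Reactions used 0.15 μM biotinylated Rb (Ser780) substrate, compound 0–10 μM, 60 min enzyme–compound preincubation, then 120 min reaction at room temperature.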

The next test addresses CDK1/Cyclin B1 (Homo sapiens, UniProt P06493). Kind of test: CDK1/Cyclin B1 Biochemical Assay (TR-FRET), 0.015 mM ATP. The following applies: 0.15 μM Rb (Ser780)-biotin substrate, pH7.0, 60 min preincubation, 120 min reaction, room temperature. In outline: as §1
Background: In TR-FRET formats the signal depends on donor and acceptor labels being close together.

The source of these data is patent US20260297080A1, “BICYCLIC COMPOUNDS AS CDK INHIBITORS” (BeOne Medicines I GmbH, priority 2022, published 2026).

CDK1/Cyclin B1, sequence (P06493 whole entry): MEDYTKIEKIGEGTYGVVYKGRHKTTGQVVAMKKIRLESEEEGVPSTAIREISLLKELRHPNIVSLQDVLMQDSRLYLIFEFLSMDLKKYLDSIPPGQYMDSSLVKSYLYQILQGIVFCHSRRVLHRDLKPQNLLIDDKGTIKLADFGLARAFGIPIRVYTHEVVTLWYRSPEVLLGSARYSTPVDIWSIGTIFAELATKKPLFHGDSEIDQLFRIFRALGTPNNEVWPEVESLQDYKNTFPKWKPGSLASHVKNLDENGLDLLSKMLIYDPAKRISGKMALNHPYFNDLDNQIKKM
CDK1/Cyclin B1, sequence (P14635 whole entry partner): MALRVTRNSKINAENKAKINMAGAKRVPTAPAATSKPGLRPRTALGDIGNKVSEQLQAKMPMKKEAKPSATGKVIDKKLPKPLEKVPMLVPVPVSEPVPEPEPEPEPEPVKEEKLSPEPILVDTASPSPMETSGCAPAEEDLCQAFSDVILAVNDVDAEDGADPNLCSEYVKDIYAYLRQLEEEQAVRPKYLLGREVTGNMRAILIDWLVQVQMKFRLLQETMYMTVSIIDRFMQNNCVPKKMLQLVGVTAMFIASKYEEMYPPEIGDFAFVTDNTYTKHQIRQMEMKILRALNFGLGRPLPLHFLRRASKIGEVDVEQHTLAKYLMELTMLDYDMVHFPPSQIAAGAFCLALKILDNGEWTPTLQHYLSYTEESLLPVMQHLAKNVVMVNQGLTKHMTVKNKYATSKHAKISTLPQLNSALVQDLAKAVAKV

As for `CC(C)NC(=O)O[C@H]1CC[C@@H](c2cc(Nc3cc(F)c4c(c3)CS(=O)(=O)N4CC(F)(F)F)n[nH]2)C1` (relative stereo) [Example 281, cis-3-(3-((7-fluoro-2,2-dioxido-1-(2,2,2-trifluoroethyl)-1,3-dihydrobenzo[c]isothiazol-5-yl)amino)-1H-pyrazol-5-yl)cyclopentyl isopropylcarbamate], the half-inhibitory concentration (IC50) (in general, the concentration that inhibits the measured activity by half) at CDK2/Cyclin E1 is 8.1 nM; on CDK1/Cyclin B1 it was 131 nM.
The corresponding values for `COCN1c2c(F)cc(Nc3cc([C@@H]4CC[C@H](OC(=O)NC(C)C)C4)[nH]n3)cc2CS1(=O)=O` (relative stereo) [Example 282, cis-3-(3-((7-fluoro-1-(methoxymethyl)-2,2-dioxido-1,3-dihydrobenzo[c]isothiazol-5-yl)amino)-1H-pyrazol-5-yl)cyclopentyl isopropylcarbamate] are 7.7 nM and 141 nM.
The corresponding values for `CC(C)NC(=O)O[C@H]1CC[C@@H](c2cc(Nc3cc(F)c4c(c3)CS(=O)(=O)N4C3COC3)n[nH]2)C1` (relative stereo) [Example 283, cis-3-(3-((7-fluoro-1-(oxetan-3-yl)-2,2-dioxido-1,3-dihydrobenzo[c]isothiazol-5-yl)amino)-1H-pyrazol-5-yl)cyclopentyl isopropylcarbamate] are 3 nM and 56 nM.
As for `[2H]C([2H])([2H])C1c2cc(Nc3cc([C@@H]4CC[C@H](OC(=O)NCCC)C4)[nH]n3)cc(F)c2N(C([2H])([2H])[2H])S1(=O)=O` (relative stereo) [Example 284, cis-3-(3-((7-fluoro-1,3-bis(methyl-d3)-2,2-dioxido-1,3-dihydrobenzo[c]isothiazol-5-yl)amino)-1H-pyrazol-5-yl)cyclopentyl propylcarbamate], the IC50 at CDK2/Cyclin E1 was 8.3 nM; on CDK1/Cyclin B1 it was 61 nM.
On the same counts, the results for `[2H]C([2H])([2H])N1c2c(F)cc(Nc3cc([C@@H]4CC[C@H](OC(=O)N[C@@H](C)CC)C4)[nH]n3)cc2CS1(=O)=O` (relative stereo) [Example 285, cis-3-(3-((7-fluoro-1-(methyl-d3)-2,2-dioxido-1,3-dihydrobenzo[c]isothiazol-5-yl)amino)-1H-pyrazol-5-yl)cyclopentyl((S)-sec-butyl)carbamate] are 12 nM and 196 nM.
On to `[2H]C([2H])([2H])C1c2cc(Nc3cc([C@@H]4CC[C@H](OC(=O)N[C@@H](C)CC)C4)[nH]n3)cc(F)c2N(C([2H])([2H])[2H])S1(=O)=O` (relative stereo) [Example 286, cis-3-(3-((7-fluoro-1,3-bis(methyl-d3)-2,2-dioxido-1,3-dihydrobenzo[c]isothiazol-5-yl)amino)-1H-pyrazol-5-yl)cyclopentyl((S)-sec-butyl)carbamate], for which the concentration for half-maximal inhibition (IC50) against CDK2/Cyclin E1 turned out to be 11 nM; against CDK1/Cyclin B1, 174 nM.
On to `[2H]C([2H])([2H])C1c2cc(Nc3cc([C@@H]4CC[C@H](OC(=O)NC5(C)CC5)C4)[nH]n3)cc(F)c2N(C([2H])([2H])[2H])S1(=O)=O` (relative stereo) [Example 287, cis-3-(3-((7-fluoro-1,3-bis(methyl-d3)-2,2-dioxido-1,3-dihydrobenzo[c]isothiazol-5-yl)amino)-1H-pyrazol-5-yl)cyclopentyl(1-methylcyclopropyl)carbamate], for which the results for the IC50 against CDK2/Cyclin E1 and against CDK1/Cyclin B1 were 7.7 nM and 77 nM, respectively.
On the same counts, the results for `CC(C)NC(=O)O[C@H]1CC[C@@H](c2cc(Nc3cc(F)c4c(c3)CS(=O)(=O)N4C3CC3)n[nH]2)C1` (relative stereo) [Example 288, cis-3-(3-((1-cyclopropyl-7-fluoro-2,2-dioxido-1,3-dihydrobenzo[c]isothiazol-5-yl)amino)-1H-pyrazol-5-yl)cyclopentyl isopropylcarbamate] are 5.5 nM and 152 nM.
The corresponding values for `CCCNC(=O)O[C@H]1CC[C@@H](c2cc(Nc3cc4c(cc3F)NS(=O)(=O)C4)n[nH]2)C1` (relative stereo) [Example 293, cis-3-(3-((6-fluoro-2,2-dioxido-1,3-dihydrobenzo[c]isothiazol-5-yl)amino)-1H-pyrazol-5-yl)cyclopentyl propylcarbamate] are 64 nM and 1120 nM.
Turning to `CC[C@H](C)NC(=O)O[C@H]1CC[C@@H](c2cc(Nc3cc4c(cc3F)NS(=O)(=O)C4)n[nH]2)C1` (relative stereo) [Example 294, cis-3-(3-((6-fluoro-2,2-dioxido-1,3-dihydrobenzo[c]isothiazol-5-yl)amino)-1H-pyrazol-5-yl)cyclopentyl((S)-sec-butyl)carbamate], the half-inhibitory concentration (IC50) against CDK2/Cyclin E1 was 15 nM; against CDK1/Cyclin B1, 359 nM.
In the case of `CC1(NC(=O)O[C@H]2CC[C@@H](c3cc(Nc4cc5c(cc4F)NS(=O)(=O)C5)n[nH]3)C2)CC1` (relative stereo) [Example 295, cis-3-(3-((6-fluoro-2,2-dioxido-1,3-dihydrobenzo[c]isothiazol-5-yl)amino)-1H-pyrazol-5-yl)cyclopentyl(1-methylcyclopropyl)carbamate], the half-maximal inhibitory concentration (IC50) on CDK2/Cyclin E1 came out at 23 nM; against CDK1/Cyclin B1, 426 nM.
In the case of `CCCNC(=O)O[C@H]1CC[C@@H](c2cc(Nc3cc4c(cc3F)N(CCO)S(=O)(=O)C4)n[nH]2)C1` (relative stereo) [Example 297, cis-3-(3-((6-fluoro-1-(2-hydroxyethyl)-2,2-dioxido-1,3-dihydrobenzo[c]isothiazol-5-yl)amino)-1H-pyrazol-5-yl)cyclopentyl propylcarbamate], the half-maximal inhibitory concentration (IC50) on CDK2/Cyclin E1 is 38 nM; at CDK1/Cyclin B1 it was 607 nM.
Turning to `CC(C)CNC(=O)O[C@H]1CC[C@@H](c2cc(Nc3cc4c(cc3F)N(CCO)S(=O)(=O)C4)n[nH]2)C1` (relative stereo) [Example 298, cis-3-(3-((6-fluoro-1-(2-hydroxyethyl)-2,2-dioxido-1,3-dihydrobenzo[c]isothiazol-5-yl)amino)-1H-pyrazol-5-yl)cyclopentyl isobutylcarbamate], the figures for the half-inhibitory concentration (IC50) against CDK2/Cyclin E1 and against CDK1/Cyclin B1 were 4.7 nM and 166 nM, respectively.
As for `CC1(NC(=O)O[C@H]2CC[C@@H](c3cc(Nc4cc5c(cc4F)N(CCO)S(=O)(=O)C5)n[nH]3)C2)CC1` (relative stereo) [Example 299, cis-3-(3-((6-fluoro-1-(2-hydroxyethyl)-2,2-dioxido-1,3-dihydrobenzo[c]isothiazol-5-yl)amino)-1H-pyrazol-5-yl)cyclopentyl(1-methylcyclopropyl)carbamate], the figures for the concentration for half-maximal inhibition (IC50) at CDK2/Cyclin E1 and on CDK1/Cyclin B1 were 9 nM and 239 nM, respectively.
Take `CC(C)NC(=O)O[C@H]1CC[C@@H](c2cc(Nc3cc4c(cc3F)N(C)S(=O)(=O)C4)n[nH]2)C1` (relative stereo) [Example 300, cis-3-(3-((6-fluoro-1-methyl-2,2-dioxido-1,3-dihydrobenzo[c]isothiazol-5-yl)amino)-1H-pyrazol-5-yl)cyclopentyl isopropylcarbamate]: the IC50 against CDK2/Cyclin E1 is 36 nM; against CDK1/Cyclin B1, 513 nM.
On to `CC(C)NC(=O)O[C@H]1CC[C@@H](c2cc(Nc3cc4c(cc3F)N(C3COC3)S(=O)(=O)C4)n[nH]2)C1` (relative stereo) [Example 301, cis-3-(3-((6-fluoro-1-(oxetan-3-yl)-2,2-dioxido-1,3-dihydrobenzo[c]isothiazol-5-yl)amino)-1H-pyrazol-5-yl)cyclopentyl isopropylcarbamate], for which the results for the IC50 against CDK2/Cyclin E1 and against CDK1/Cyclin B1 were 12 nM and 404 nM, respectively.
With `CC(C)NC(=O)O[C@H]1CC[C@@H](c2cc(Nc3cc4c(cc3F)N(C3CC3)S(=O)(=O)C4)n[nH]2)C1` (relative stereo) [Example 302, cis-3-(3-((1-cyclopropyl-6-fluoro-2,2-dioxido-1,3-dihydrobenzo[c]isothiazol-5-yl)amino)-1H-pyrazol-5-yl)cyclopentyl isopropylcarbamate], the values for the concentration for half-maximal inhibition (IC50) at CDK2/Cyclin E1 and against CDK1/Cyclin B1 were 21 nM and 686 nM, respectively.
With `CC(C)NC(=O)O[C@H]1CC[C@@H](c2cc(Nc3ccc4c(c3)NS(=O)(=O)C4(C)C)n[nH]2)C1` (relative stereo) [Example 304, cis-3-(3-((3,3-dimethyl-2,2-dioxido-1,3-dihydrobenzo[c]isothiazol-6-yl)amino)-1H-pyrazol-5-yl)cyclopentyl isopropylcarbamate], the IC50 against CDK2/Cyclin E1 was found to be 29 nM; against CDK1/Cyclin B1, 251 nM.
As to `CCCNC(=O)O[C@H]1CC[C@@H](c2cc(Nc3ccc4c(c3)NS(=O)(=O)C4)n[nH]2)C1` (relative stereo) [Example 305, cis-3-(3-((2,2-dioxido-1,3-dihydrobenzo[c]isothiazol-6-yl)amino)-1H-pyrazol-5-yl)cyclopentyl propylcarbamate], the IC50 was 6.5 nM at CDK2/Cyclin E1 and 58 nM on CDK1/Cyclin B1.
In the case of `CC[C@H](C)NC(=O)O[C@H]1CC[C@@H](c2cc(Nc3ccc4c(c3)NS(=O)(=O)C4)n[nH]2)C1` (relative stereo) [Example 306, cis-3-(3-((2,2-dioxido-1,3-dihydrobenzo[c]isothiazol-6-yl)amino)-1H-pyrazol-5-yl)cyclopentyl((S)-sec-butyl)carbamate], the IC50 was determined as 2.8 nM against CDK2/Cyclin E1 and 27 nM at CDK1/Cyclin B1.
For `CC1(NC(=O)O[C@H]2CC[C@@H](c3cc(Nc4ccc5c(c4)NS(=O)(=O)C5)n[nH]3)C2)CC1` (relative stereo) [Example 307, cis-3-(3-((2,2-dioxido-1,3-dihydrobenzo[c]isothiazol-6-yl)amino)-1H-pyrazol-5-yl)cyclopentyl(1-methylcyclopropyl)carbamate], the concentration for half-maximal inhibition (IC50) against CDK2/Cyclin E1 was 2.5 nM; on CDK1/Cyclin B1, 18 nM.
Regarding `CC(C)NC(=O)O[C@H]1CC[C@@H](c2cc(Nc3ccc4c(c3)N(C)S(=O)(=O)C4)n[nH]2)C1` (relative stereo) [Example 308, cis-3-(3-((1-methyl-2,2-dioxido-1,3-dihydrobenzo[c]isothiazol-6-yl)amino)-1H-pyrazol-5-yl)cyclopentyl isopropylcarbamate], the half-maximal inhibitory concentration (IC50) against CDK2/Cyclin E1 worked out at 2.2 nM; on CDK1/Cyclin B1 it was 26 nM.
